Assay results taken from paper PMC8286817, “Identifying SARS-CoV-2 antiviral compounds by screening for small molecule inhibitors of Nsp14 RNA cap methyltransferase” (Biochemical Journal, 2021).
Counter-ions that a name gives are not always drawn. Peptide text beside a SMILES is read from it. * marks the point of attachment. Cbz = O=C(OCc1ccccc1)*

Each molecule was assayed against T1, SARS-CoV-2 nsp14 guanine-N7 methyltransferase (Severe acute respiratory syndrome coronavirus 2, UniProt P0DTD1) (assay: biochemical). Details: not given.
Format: biochemical

Point of comparison: `Nc1nc(OCc2cc(Br)cs2)c2[nH]cnc2n1` [Lomeguatrib], IC50 59.8 µM. Against it:
- O=C(CCCN1CCC(O)(c2cccc(C(F)(F)F)c2)CC1)c1ccc(F)cc1 [Trifluperidol] — 4.6-fold lower, 12.9 µM

For `Nc1ncnc2c1ncn2[C@@H]1O[C@H](C[C@@H](N)CC[C@H](N)C(=O)O)[C@@H](O)[C@H]1O` [sinefungin], the “Inhibition of nsp14 activity (HTRF signal)” value was “inhibited nsp14 activity in a dose-dependent manner”.

Same assay, conditions: read-out: Km (Michaelis constant) of substrate for nsp14

Point of comparison: `Nc1nc2c(ncn2[C@@H]2O[C@H](COP(=O)(O)OP(=O)(O)OP(=O)(O)O)[C@@H](O)[C@H]2O)c(=O)[nH]1` [GTP], Km 301 ± 110 µM. Against it:
- Nc1nc2c(ncn2[C@@H]2O[C@H](COP(=O)(O)OP(=O)(O)OP(=O)(O)OC[C@H]3O[C@@H](n4cnc5c(N)ncnc54)[C@H](O)[C@@H]3O)[C@@H](O)[C@H]2O)c(=O)[nH]1 [GpppA] — 2.6-fold lower, 114 ± 21 µM

Same assay, conditions: read-out: Normalised HTRF50 (inhibition of nsp14 methyltransferase activity)

In the case of Inauhzin, the IC50 is reported as 23 µM.

What follows are molecules tested against T1, SARS-CoV-2 nsp14 guanine-N7 methyltransferase (assay: not given). Details: not given.
Format: biochemical

Point of comparison: `CCN(CC)CC.Nc1ncnc2c1ncn2[C@@H]1O[C@@H]2COP(O)(=S)O[C@H]2[C@H]1O` (stereo partly shown) [Sp-cAMPS triethylamine], “Z-Score in primary screen” value 3.048. Against it:
- CC(N)c1cccc(Cl)c1Cl.Cl (racemic) [(±)-2,3-Dichloro-alpha-methylbenzylamine hydrochloride] — higher, 3.186
- C[C@@H]1O[C@H](C[N+](C)(C)C)C[C@H]1O.[Cl-] (racemic) [(±)-Muscarine chloride] — higher, 3.736
- CCCCC[C@H](O)/C=C/C=C\C/C=C\C=C\[C@@H](O)CCCC(=O)O [5(S),15(S)-DIHETE] — higher, 3.436
- Br.NC1CCc2cc(O)c(O)cc2C1 (stereo not shown) [6,7-ADTN hydrobromide] — higher, 3.690
- CCC(Sc1nnc2c(n1)[nH]c1ccccc12)C(=O)N1c2ccccc2Sc2ccccc21 (stereo not shown) [10-[2-(5H-[1,2,4]triazino[5,6-b]indol-3-ylsulfanyl)butanoyl]-10H-phenothiazine] — higher, 5.999
- C1=C2CCCN[C@H]2[C@@H]2C[C@H]1[C@H]1CCCCN1C2 [Aloperine] — higher, 6.366
- C[C@@H]1CC[C@H]2[C@@H](C)C(=O)O[C@@H]3O[C@@]4(C)CC[C@@H]1[C@]32OO4 [Artemisisin] — lower, 2.850
- CCCCOc1ccc(CC(=O)NO)cc1 [Bufexamac] — higher, 5.383
- CCCCNc1cc(C(=O)O)cc(S(N)(=O)=O)c1Oc1ccccc1 [Bumetanide] — higher, 3.246
- CCCCN1CCCCC1C(=O)Nc1c(C)cccc1C (stereo not shown) [Bupivacaine] — higher, 3.673
- C[C@H](N)C(=O)N1C[C@H](CCCB(O)O)[C@](N)(C(=O)O)C1 [CB-1158 (dihydrochloride)] — higher, 4.540
- CC(C[N+](C)(C)C)OC(N)=O (stereo not drawn) [Carbamyl-beta-methylcholine] — higher, 3.385
- Cc1c(C(=O)O)c(O)cc2c1C(=O)c1c(O)c([C@@H]3O[C@H](CO)[C@@H](O)[C@H](O)[C@H]3O)c(O)c(O)c1C2=O [Carminic acid] — higher, 3.060
- CCn1nc(C(=O)O)c(=O)c2cc3c(cc21)OCO3 [Cinoxacin] — higher, 3.126
- c1ccc(CNc2nc(NCc3ccccc3)c3ccccc3n2)cc1 [DBeQ] — higher, 4.776
- c1ccc2c(c1)N=C(N1CCNCC1)c1ccccc1N2 [DREADD agonist 21] — higher, 3.333
- CNCCCN1c2ccccc2CCc2ccccc21 [Desipramine hydrochloride] — higher, 4.460
- COc1ccc2c(c1)[C@]13CCCC[C@@H]1[C@H](C2)N(C)CC3 [Dextromethorphan] — lower, 3.036
- O=c1c2ccccc2[se]n1-c1ccccc1 [Ebselen] — higher, 5.010
- CCC1(C)CC(=O)NC1=O (stereo not shown) [Ethosuximide] — higher, 3.595
- CC(Cc1ccc(O)cc1)NCC(O)c1cc(O)cc(O)c1 (stereo not shown) [Fenoterol hydrobromide] — higher, 3.275
- CC(C)C(=O)Nc1ccc([N+](=O)[O-])c(C(F)(F)F)c1 [Flutamide] — higher, 3.970
- C[C@]12CCC(=O)C=C1CC[C@@H]1[C@@H]2[C@@H](O)C[C@@]2(C)[C@H]1CC[C@]2(O)C(=O)CO [Hydrocortisone] — higher, 4.062
- COc1cc2c(cc1OC)CC(=O)N(CCCN(C)C[C@H]1Cc3cc(OC)c(OC)cc31)CC2 [Ivabradine] — lower, 2.786
- CCN1C[C@]2(C)CC[C@H](O)[C@]34C1[C@@H](C[C@H]23)[C@@]1(O)C[C@H](OC)[C@H]2C[C@@H]4[C@@H]1[C@H]2O [Karakoline] — higher, 3.794
- Cl.Cl.Cl.Ic1ccc(N2CCN(Cc3c[nH]c4ncccc34)CC2)cc1 [L-750,667 trihydrochloride] — higher, 3.788
- Nc1nc(OCc2cc(Br)cs2)c2[nH]cnc2n1 [Lomeguatrib] — lower, 2.697
- CC(C)[C@H](NC(=O)OCc1ccccc1)C(=O)N[C@H](C=O)Cc1ccccc1 [MDL 28170] (Cbz-Val-Phe-aldehyde) — higher, 3.310
- CNC[C@H](O)[C@@H](O)[C@H](O)[C@H](O)CO [Meglumine] — higher, 3.529
- CC1(C)CNc2cc(NC(=O)c3cccnc3NCc3ccncc3)ccc21 [Motesanib] — higher, 3.875
- O=c1c(O)c(-c2cc(O)c(O)c(O)c2)oc2cc(O)cc(O)c12 [Myricetin] — higher, 6.539
- CC(COc1ccc(/C=C/c2ccccc2)cc1)[N+](C)(C)C.[I-] (stereo not drawn) [N,N,N-trimethyl-1-(4-trans-stilbenoxy)-2-propylammonium iodide] — lower, 3.028
- CNCCc1ccc(O)c(O)c1.Cl [N-Methyldopamine hydrochloride] — higher, 3.906
- COc1ccc(C2=N[C@H](c3ccc(Cl)cc3)[C@H](c3ccc(Cl)cc3)N2C(=O)N2CCNC(=O)C2)c(OC(C)C)c1 [Nutlin (3b)] — higher, 4.552
- O=C(O)CCCCCCC(=O)O [Octanedioic acid] — higher, 3.256
- N#Cc1ccc(N2N=C3c4ccc(C(=O)O)cc4CC[C@@H]3[C@@H]2C2CCCC2)cc1Cl [PF-03882845] — higher, 5.080
- CCCN1C[C@H](CSC)C[C@@H]2c3cccc4[nH]cc(c34)C[C@H]21 [Pergolide methanesulfonate] — higher, 3.690
- O=C1NC(=O)C(c2ccccc2)(c2ccccc2)N1 [Phenytoin sodium] — higher, 3.651
- CCCCCCCCCCCCCC(=O)O[C@@H]1[C@@H](C)[C@@]2(O)[C@@H](C=C(CO)C[C@]3(O)C(=O)C(C)=C[C@@H]23)[C@@H]2C(C)(C)[C@]12OC(C)=O [Phorbol 12-myristate 13-acetate] — higher, 7.036
- CN1CCc2cc(Cl)c(O)cc2[C@@H](c2ccccc2)C1.Cl [R(+)-SCH-23390 hydrochloride] — higher, 3.847
- COc1ccc(CCNC[C@H](O)c2ccc(O)cc2)cc1OC [R(-)-Denopamine] — higher, 5.027
- Cc1cncc(CN2CCC(=C3c4ccc(Cl)cc4CCc4cccnc43)CC2)c1.O=C(O)/C=C/C(=O)O [Rupatadine Fumarate] — higher, 3.745
- C[n+]1ccccc1CC(=O)c1ccc(Br)cc1.[I-] [S 24795] — higher, 3.557
- Nc1ncnc2c1ncn2C1CCCO1 (stereo not shown) [SQ 22536] — higher, 3.378
- Cl.NC1CCN(c2cccc(Cl)n2)CC1 [SR 57227A] — higher, 4.099
- NC(=O)C(=O)O [Sodium Oxamate] — higher, 3.379
- C[N+]1(C)CCC[C@H]1C(=O)[O-].Cl [Stachydine hydrochloride] — lower, 2.622
- O=C(CCCN1CCC(O)(c2cccc(C(F)(F)F)c2)CC1)c1ccc(F)cc1 [Trifluperidol] — higher, 5.671
- CC(C)(C)c1cc(C=C(C#N)C#N)cc(C(C)(C)C)c1O [Tyrphostin A9] — higher, 3.261
- Brc1c(NC2=NCCN2)ccc2nccnc12 [UK 14,304] — higher, 3.074
- NC(N)=NCc1cccc(I)c1.NC(N)=NCc1cccc(I)c1.O=S(=O)(O)O [m-Iodobenzylguanidine hemisulfate] — higher, 4.530
- Nc1ccc(C(=O)O)cc1 [p-Aminobenzoic acid] — lower, 2.479
- Bioymifi — higher, 3.204
- Inauhzin — higher, 3.833
